# Experimental data: patent US7750148B2, “Intermediate compound for the production of β-lactamase-resistant cephalosporin ester compounds and salts thereof” (Zhejiang Yongning Pharmaceutical Factory, priority 2003, dated 2010)
# Read-outs that look alike come from different tables or passages of the source.
# Experiments:
# [1] = system: Bacillus proteus 49085, Proteus morganii 49086; experiment: Ex vivo antibacterial activity experiment after mouse is administered, conclusions (strains not separated); format: in vivo
# Excerpt: the sources of tested samples (YR-1, YR-2) and control samples (CTM, CRX, CTM+SBT 1:1 and CRX+SBT 1:1) are the same as above. Bacillus proteus 49085, Proteus morganii 49086, inoculated 10^5CFU/ML each dish. Mueller-Hinton Agar (M.H) culture medium, batch number 000707 (Shanghai Reagent Supply Research Center, China Diarrhea Disease Control). Strain: Kunming mice; source: Animal Facility of Shanghai Institute of Pharmaceutical Industry; certificate number: Hudonghezhengzi No. 107; animal numbers: 120; Sex: same number of male and female mice; Body weight: 18-21 g; fast time: 16 hours. Group 1: CTM, CRX, CTM+SBT 1:1, CRX+SBT 1:1 were given at a dosage of 500 mg/kg intravenously, collecting blood at 10 minutes, 30 minutes, 1 hour, 2 hours, 4 hours, 8 hours after administration. Group 2: […] Kunming mice were randomly divided into several groups according to body weight of empty stomach and sex. Collecting blood of three mice at different time point, anticoagulated with heparin, centrifugated and separated plasma, quantitative spotting, semi-quantitated antibacterial activity according to the size of bacterial inhibition ring.
# [2] = system: Diplococcus lanceolatus 0031; experiment: In vitro antibacterial activity (MIC, agar double dilution); format: cell-based; details: Diplococcus lanceolatus 0031, 10^5CFU/ML each point, 24 hours at 37° C.
# Excerpt: (§1) tested samples YR-1, YR-2 were the ones prepared in example 1 and example 5 respectively, control samples were cefetamet sodium (CTM), cefuroxime sodium (CRX), cefetamet sodium+sulbactam sodium (CTM+SBT) (molar ratio 1:1), cefuroxime+sulbactam sodium (CRX+SBT) (molar ratio 1:1). All control samples (have been sold on the market) were supplied by Zhejiang Yongning pharmaceutical factory.
# Diplococcus lanceolatus 0031 was supplied by Shanghai First People's Hospital.
# (§2) Mueller-Hinton Agar (M.H) culture medium, batch number 20040528 (Shanghai Reagent Supply Research Center, China Diarrhea Disease Control).
# (§3) Adopted agar double dilution, inoculated using multipoint inoculator, inoculated 10^5CFU/ML each point, cultured for 24 hours at 37° C., observed and recorded the results, set the least concentration of the antibacterial drug that can inhibit bacteria growth as the minimum inhibitory concentration (MIC).
# [3] = system: Proteus morganii 49086; experiment: as above; format: cell-based; parameters: MIC (as restated in the conclusions): unit not given here; details: for antibacterial activities enhanced versus CTM or CRX used solely: YR-1 vs CTM, YR-2 vs CRX
# Excerpt: as §1
# Staphylococcus aureus 26003, Diplococcus lanceolatus 31002, E. coli 44102, Shigella sonnet 51081, Shigella bogdii 51313, Shigella flexneri 51573, Proteus mirabilis 49005, Bacillus proteus 49085, Proteus morganii 49086, Pseudomonas aeruginosa 10124, Bacillus pneumoniae 46101, Salmonella enteritidis 50041, Salmonella typhi 50097, Citrobacter 48017, Candida ciferii 41002 were supplied by Shanghai Hygienic and Antiepidemic Station.
# as §2, §3
# [4] = system: Staphylococcus epidermidis 26069; experiment: as above; format: cell-based; details: Staphylococcus epidermidis 26069, 10^5CFU/ML each point, 24 hours at 37° C.
# Excerpt: as §1
# (§4) Staphylococcus epidermidis 26069 and Bacillus aerogenes 45102 were supplied by Beijing Drug & Biology Product Appraisal Bureau.
# as §2, §3
# [5] = system: Bacillus aerogenes 45102; experiment: as above; format: cell-based
# Excerpt: as §1, §4, §2, §3
# [6] = mice, intragastric administration 1000 mg/kg
# [7] = read-out: MIC of the drug to bacteria
compound,measurement,setting,value
"5-thia-1-aza-bicyclo [4,2,0] octane-2-ene-2-carboxylic acid, 7-[[(2-amino-4-thiazolyl) (methoxy imine) acetyl]amino]-3-methyl-8-oxo-, [[3,3-dimethyl-4,4-dioxy-7-oxo-4-thia-1-aza-bicyclo [3,2,0] heptane-2-group]carbonyloxy]oxy]methyl ester [YR-1]",blood drug concentrations,"[1]; in vivo, 1000 mg/kg",stable and persistent
same,antibacterial activities in blood 8 hours after administration,[1]; [6],can be detected
same,half-life period (compared with the intravenous controls),"[1]; mouse, in vivo, 1000 mg/kg",longer half-life period
same,MIC of the drug to bacteria,[2],50 µg/mL
same,MIC (as restated in the conclusions),[3]; Proteus morganii 49086,0.78
same,MIC of the drug to bacteria,"[3]; Proteus morganii 49086, 10^5CFU/ML each point, 24 hours at 37° C.",0.78 µg/mL
same,antibacterial activities enhanced versus CTM or CRX used solely,[3]; Proteus morganii 49086,one hundred times
same,MIC of the drug to bacteria,[4],50 µg/mL
same,MIC of the drug to bacteria,"[5]; Bacillus aerogenes 45102, 10^5CFU/ML each point, 24 hours at 37° C.",0.39 µg/mL
"CON=C(C(=O)NC1C(=O)N2C(C(=O)OCOC(=O)C3N4C(=O)CC4S(=O)(=O)C3(C)C)=C(COC(N)=O)CSC12)c1ccco1 (stereo not drawn) [YR-2, 5-thia-1-aza-bicyclo [4,2,0] octane-2-ene-2-carboxylic acid, 7-[[(2-furane (methoxy imine)acetyl)amino]-3-[[(aminocarbonyloxy)oxy]methyl]-8-oxo-, [[3,3-dimethyl-4,4-dioxy-7-oxo-4-thia-1-aza-bicyclo[3,2,0]heptane-2-group]carbonyloxy]oxy]methyl ester]",blood drug concentrations,"[1]; in vivo, 1000 mg/kg",stable and persistent
same,antibacterial activities in blood 8 hours after administration,[1]; [6],can be detected
same,half-life period (compared with the intravenous controls),[1]; [6],longer half-life period
same,MIC,[2]; [7],0.78 µg/mL
same,MIC,"[3]; Morganella morganii, 49086, 24 h, read-out: MIC of the drug to bacteria",25 µg/mL
same,MIC,"[3]; Morganella morganii, 49086, read-out: MIC (as restated in the conclusions)",25000 µg/mL
same,antibacterial activities enhanced versus CTM or CRX used solely,[3]; Proteus morganii 49086,four times
same,MIC,[4]; [7],0.78 µg/mL
same,MIC,"[5]; Bacillus, 45102, 24 h, read-out: MIC of the drug to bacteria",6.25 µg/mL
